Data published in US9695219B2, “Polypeptide having antibacterial activity and angiogenesis-inducing activity and wound-healing drug containing said polypeptide” (priority 2009, dated 2017).
Where a SMILES comes first, the peptide text is derived from it. [ ]: non-standard residue; d: D form.

What was measured:
[1] = system: Bacteroides fragilis; test: microbe, parasite or virus in culture; format: cell-based; conditions: 37° C. for 20 hours; tested twice, first/second value where not matched
Experimental: (§1) Further, with respect to not only the above-described strains but also various other strains, the “minimum inhibitory concentration (MIC)” was measured as follows. MIC is the lowest concentration of an agent that may inhibit the growth of a bacterium. MIC is used as a parameter for the efficacy of an antibacterial agent, for the strength of bacterial sensitivity, or the like. The bacteria can grow (proliferate) when the concentration is not higher than MIC, and cannot grow when the concentration is higher than MIC. Its measurement is carried out according to a method defined as a standard method by Japanese Society of Chemotherapy or CLINICAL AND LABORATORY […] (CLSI), but, in this Example, its measurement was carried out by a broth microdilution method in accordance with “M100-S17/M7-A7” (Performance Standards for Antimicrobial Susceptibility Testing; Seventeenth Informational Supplement, Vol. 27 No. 1) published by CLSI on January, 2007. That is, sensitivity test of agents was carried out using a microtiter plate or test tubes.
(§2) The bacteria were cultured in liquid media for 4 to 6 hours, and thereafter absorbances at A600 were measured. Bacterial suspensions were diluted with Mueller-Hinton broth (MHB) according to McFarland #0.5. Each strain was added so as to attain about 10^5 CFU/ml (final concentration). Each peptide was prepared to an optional concentration, and the solutions were serially diluted from the concentration. The polypeptide at each concentration stage was added to a microplate or test tubes, and the bacterial suspension was added thereto. Chloramphenicol, amphotericin B, ciprofloxacin, meropenem (MEPM), ciprofloxacin (CPFX), tobramycin (TOB) and oxacillin (OX) were used as positive controls. The plate was incubated at 37° C. for 20 hours, and the lowest concentration where bacterial growth was inhibited was regarded as the minimum inhibitory concentration.

[2] = system: Clostridium ramosum; test: microbe, parasite or virus in culture; format: cell-based; conditions: 37° C. for 20 hours; tested twice, first/second value where not matched
Experimental: as §1, §2

[3] = system: Salmonella typhimurium; test: microbe, parasite or virus in culture; format: cell-based; conditions: 37° C. for 20 hours; tested twice, first/second value where not matched
Experimental: as §1, §2

[4] = system: human vascular endothelial cells and fibroblast cells; test: Lumen formation test, areas of formed lumina (Angiogenesis Kit KZ-1000); format: cell-based; conditions: 0.5, 2.5 and 10 μg/mL, Day 11 of culture
Experimental: Then, in order to examine the angiogenesis activity of these, lumen formation by the polypeptides was evaluated using an angiogenesis kit available from KURABO […] LTD. (Product No.: KZ-1000). Vascular endothelial growth factor (VEGF) as a positive control, and polypeptide-free, unstimulated group as a negative control, were used.
Using a special medium for angiogenesis which was attached to the kit, each polypeptide was prepared such that the concentration thereof was respectively 0.5, 2.5 and 10 μg/mL. To a 24-well plate in which cells were plated (the cells were those obtained by co-culturing human vascular endothelial cells and fibroblast cells at an optimum concentration) which was attached to the kit, the special medium for angiogenesis containing each polypeptide was added, and the cells were cultured at 37° C. under 5% CO2. The medium was replaced with a medium containing the same additive on Day 4, Day 7 and Day 9 of culture. […]
Each of the obtained images was quantified using an angiogenesis quantification software. The areas of formed lumina observed in each visual field were measured on the basis of the scale of an angiogenesis quantification software available from KURABO […] […] (angiogenesis quantification software Ver 1.0), and evaluated on the basis of the ratio of the areas of polypeptide-containing groups relative to the area of the negative control group.

[5] = system: rat infected-wound model (wound infected with Staphylococcus aureus); test: Healing effect in infected wounds; format: in vivo; conditions: 50 μg dropwise Days 0-3 with Staphylococcus aureus, followed to Day 10; vs bFGF formulation 3 μg
Experimental: Referring to Stenberg B D et al. (J Surg Res. 1991 January; 50(1):47-50.) and Hayward P et al. (Am J Surg. 1992 March; 163(3):288-93.), a rat infected-wound model was produced as described below. HWY/slc hairless rats (male, 7-week old, obtained from Japan SLC, Inc.) were used. The day before full-thickness defects were created, the number of leukocytes was measured and cyclophosphamide was administered in tail vein (100 mg/kg). On the next day, the number of leukocytes was counted. Only the individuals in which the number of leukocytes was not more than 5000, were used. A square-shaped full-thickness defects of 1.73×1.73 cm (about 3 cm^2) were created on the back of the rats, and 25 μL of Staphylococcus aureus (about 10^5 CFU/25 μL) and SR-07 or SR-08 peptide as a test substance (2 mg/mL) was added dropwise onto the defect sites (the administered amount was 50 μg). On the other hand, 25 μL of the bFGF formulation (3 μg/25 μL) was added dropwise in the bFGF formulation (a positive control) group, and 25 μL of physiological saline was added dropwise in the negative control groups. […] From the day when the full-thickness defects were created to Day 10, the area where the wounds had still not healed was measured to calculate the ratio of it relative to the area where the wounds were created, and the results were shown in graphs (FIG. 9 (SR-07) and FIG. 10 (SR-08)).

## CC[C@H](C)[C@H](NC(=O)[C@H](CC(C)C)NC(=O)[C@H](CCCCN)NC(=O)[C@@H](N)CC(C)C)C(=O)N[C@@H](Cc1ccccc1)C(=O)N[C@@H](CC(C)C)C(=O)N[C@@H](Cc1c[nH]cn1)C(=O)N[C@@H](CCCNC(=N)N)C(=O)N[C@@H](CC(C)C)C(=O)N[C@@H](CCCCN)C(=O)N[C@@H](CCCNC(=N)N)C(=O)N[C@@H](CCSC)C(=O)N[C@@H](CCCNC(=N)N)C(=O)N[C@@H](CCCCN)C(=O)N[C@@H](CCCNC(=N)N)C(=O)N[C@@H](CC(C)C)C(=O)N[C@H](CCCCN)C(=O)N[C@@H](CCCNC(=N)N)C(=O)N[C@@H](CCCCN)C(N)=O [SR-08] (H-LKLIFLHRLKRMRKRL[dK]RK-NH2; N-terminus assumed)
[1]
  MIC, Bacteroides fragilis: 64/128
[2]
  MIC, Clostridium ramosum: 32/16
[3]
  MIC, Salmonella typhimurium: 8/4
[4]
  Ability to form lumen (areas of formed lumina relative to negative control, FIG. 1): showed an ability to form lumen at the tested concentrations
[5]
  Healing effect on infected wounds (unhealed area ratio, FIGS. 9 and 10): showed a higher healing effect on infected wounds than the bFGF formulation
